14 molecules from PMC8708872, “Discovery of a Novel Template, 7-Substituted 7-Deaza-4′-Thioadenosine Derivatives as Multi-Kinase Inhibitors” (Pharmaceuticals, 2021) can be followed below.

Series [1] deals with T1, TRKA (Homo sapiens, UniProt P04629).
T1 construct: purchased Eurofins DiscoverX Corporation
Description: Kinase inhibition profile, KINOMEscan 11-point dose response. Format: binding. As to conditions: for IC50: 11-point 3-fold serial dilution; for Ki: by Cheng-Prusoff equation.

For series [2], the target named is T2, CK1δ (Homo sapiens, UniProt P48730).
T2 construct: purchased Eurofins DiscoverX Corporation
T2 sequence (P48730 whole entry): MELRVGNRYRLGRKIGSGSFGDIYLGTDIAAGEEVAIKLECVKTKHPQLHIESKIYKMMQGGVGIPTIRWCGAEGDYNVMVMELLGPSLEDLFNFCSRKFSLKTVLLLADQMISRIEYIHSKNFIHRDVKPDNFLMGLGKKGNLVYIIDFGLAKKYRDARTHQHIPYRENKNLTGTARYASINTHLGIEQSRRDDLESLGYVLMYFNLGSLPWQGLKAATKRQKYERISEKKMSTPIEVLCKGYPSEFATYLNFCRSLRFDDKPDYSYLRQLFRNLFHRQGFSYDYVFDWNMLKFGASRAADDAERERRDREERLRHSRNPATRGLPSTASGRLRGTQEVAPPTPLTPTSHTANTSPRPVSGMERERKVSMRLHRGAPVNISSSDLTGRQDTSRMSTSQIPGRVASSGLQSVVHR
The series is described as above. Format: binding. Particulars: for IC50: 11-point 3-fold serial dilution; for Ki: by Cheng-Prusoff equation.

Series [3] addresses T3, DYRK1A (Homo sapiens, UniProt Q13627).
T3 construct: purchased Eurofins DiscoverX Corporation
The description is as above. Format: binding. As to conditions: for IC50: 11-point 3-fold serial dilution; for Ki: by Cheng-Prusoff equation.

Series [4] concerns the target T4, DYRK1B (Homo sapiens, UniProt Q9Y463).
T4 construct: purchased Eurofins DiscoverX Corporation
The description is as above. The class given is binding. As to conditions: for IC50: 11-point 3-fold serial dilution; for Ki: by Cheng-Prusoff equation.

Series [5] concerns A549. Description: SRB cell proliferation inhibition assay. As to conditions: human lung cancer cells, 72 h. Format: cell-based. On the procedure:
(§1) Human lung cancer cells (A549), colorectal cancer (HCT116) cells, breast cancer cells (MDA-MB-231), liver cancer cells (SK-HEP-1), and prostate cancer cells (PC-3) were purchased from the American Type Culture Collection (Manassas, VA, USA). Human gastric cancer cells (SNU-638) were purchased from the Korean Cell Line Bank (Seoul, Korea). Cells were cultured in medium (Dulbecco’s modified Eagle’s medium for MDA-MB-231 and SK-HEP-1 cells; Roswell Park Memorial Institute 1640 for A549, HCT116, SNU-638, PC-3 cells) supplemented with penicillin-streptomycin and 10% fetal bovine serum at 37 °C in a humidified incubator with 5% carbon dioxide. Cells were seeded at a density of 4–7 × 10^4 cells/mL in 96-well culture plates, and then treated with indicated compounds for 72 h. At the end of the experiment, cells were fixed with 10% trichloroacetic acid (TCA) solution and subjected to sulforhodamine B (SRB) assay to determine cell proliferation. The percentage of cell proliferation was calculated with the following formula:Cell proliferation (%) = 100 × [(A treated − A zero day)/(A control − A zero day)], where A is the average absorbance. The IC50 values were calculated through non-linear regression analysis using TableCurve 2D v5.01 (Systat Software Inc., San Jose, CA, USA). All experiments were performed in triplicate and data shown are representative of two or three independent experiments.

For series [6], the system named is HCT116. The experiment in a line: SRB cell proliferation inhibition assay. The class given is cell-based. Particulars: HCT-116, human colon cancer cells, 72 h. The protocol:
as §1

In series [7] the test system is MDA-MB-231. Description: SRB cell proliferation inhibition assay. Format: cell-based. As to conditions: human breast cancer cells, 72 h. The protocol:
as §1

Series [8] concerns PC-3. The experiment in a line: SRB cell proliferation inhibition assay. The class given is cell-based. As to conditions: human prostate cancer cells, 72 h. The protocol:
as §1

Series [9] concerns SK-HEP-1. Description: SRB cell proliferation inhibition assay. Format: cell-based. Particulars: SK-HEP1, human liver cancer cells, 72 h. The protocol:
as §1

In series [10] the test system is SNU638. Description: SRB cell proliferation inhibition assay. The class given is cell-based. Particulars: SNU-638, human stomach cancer cells, 72 h. The protocol:
as §1

T1 sequence (P04629 33-796): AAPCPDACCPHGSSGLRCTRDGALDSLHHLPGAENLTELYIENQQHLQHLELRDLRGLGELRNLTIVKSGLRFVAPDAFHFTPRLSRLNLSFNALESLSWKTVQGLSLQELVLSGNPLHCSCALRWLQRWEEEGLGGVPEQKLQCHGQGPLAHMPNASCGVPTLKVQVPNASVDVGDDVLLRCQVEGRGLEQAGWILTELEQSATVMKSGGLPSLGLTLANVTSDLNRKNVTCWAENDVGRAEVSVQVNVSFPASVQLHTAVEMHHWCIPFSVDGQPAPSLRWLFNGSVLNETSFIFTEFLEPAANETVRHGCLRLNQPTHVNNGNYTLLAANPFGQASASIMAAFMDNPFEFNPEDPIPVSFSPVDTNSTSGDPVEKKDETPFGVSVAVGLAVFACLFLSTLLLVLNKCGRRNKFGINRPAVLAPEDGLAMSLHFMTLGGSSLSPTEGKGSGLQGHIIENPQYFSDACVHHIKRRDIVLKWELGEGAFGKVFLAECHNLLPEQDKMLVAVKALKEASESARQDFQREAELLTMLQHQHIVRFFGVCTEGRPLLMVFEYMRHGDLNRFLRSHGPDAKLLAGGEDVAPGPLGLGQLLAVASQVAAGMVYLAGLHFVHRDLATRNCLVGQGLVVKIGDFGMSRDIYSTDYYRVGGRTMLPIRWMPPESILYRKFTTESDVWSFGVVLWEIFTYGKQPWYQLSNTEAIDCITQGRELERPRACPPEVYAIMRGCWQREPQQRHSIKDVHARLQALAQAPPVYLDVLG
T4 sequence (Q9Y463 whole entry): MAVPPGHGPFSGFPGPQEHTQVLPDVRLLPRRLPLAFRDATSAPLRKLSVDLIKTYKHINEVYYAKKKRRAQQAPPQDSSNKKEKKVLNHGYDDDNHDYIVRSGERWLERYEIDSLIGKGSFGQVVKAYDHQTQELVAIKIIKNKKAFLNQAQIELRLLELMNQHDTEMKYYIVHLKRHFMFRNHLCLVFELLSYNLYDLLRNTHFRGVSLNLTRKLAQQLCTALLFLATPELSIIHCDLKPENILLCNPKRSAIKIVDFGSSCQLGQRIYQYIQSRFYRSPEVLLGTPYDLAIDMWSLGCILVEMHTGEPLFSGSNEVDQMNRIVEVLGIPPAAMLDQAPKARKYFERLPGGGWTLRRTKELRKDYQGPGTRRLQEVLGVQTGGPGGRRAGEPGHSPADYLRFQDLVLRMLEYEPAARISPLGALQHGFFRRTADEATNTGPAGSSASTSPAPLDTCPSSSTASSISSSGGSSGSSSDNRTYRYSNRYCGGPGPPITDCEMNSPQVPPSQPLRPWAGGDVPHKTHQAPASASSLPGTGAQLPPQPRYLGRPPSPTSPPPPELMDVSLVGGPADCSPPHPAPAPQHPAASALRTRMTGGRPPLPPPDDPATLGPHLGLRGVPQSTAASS

The term IC50 denotes the concentration that inhibits the measured activity by half. Broadly, the Ki is a measure of affinity in units of concentration, obtained from inhibition or displacement. Consider `Cc1nccc(-c2cn(Cc3ccccc3)c3cnccc23)n1` [AZ Dyrk1B 33, reference compound], for which the IC50 in series [1] was > 10000 nM; in [2], > 10000 nM; in series [3], 14 nM; in [4], 50 nM. In addition, the Ki was found to be 28 nM in series [3] and 50 nM in series [4].
The melting point is the temperature of the solid-liquid transition. For `Nc1ncnc2c1c(-c1ccco1)cn2[C@@H]1S[C@H](CO)[C@@H](O)[C@H]1O` [Compound 1a, (2R,3R,4S,5R)-2-(4-Amino-5-(furan-2-yl)-7H-pyrrolo[2,3-d]pyrimidin-7-yl)-5-(hydroxymethyl)tetrahydrothiophene-3,4-diol], the melting point was in the range of 197 to 199 °C. Moreover, half-maximal inhibition in [5] (IC50) was put at 1020 nM. The same molecule returned an IC50 in [6] of 2160 nM. Also, the IC50 in series [7] is 3.31 µM. The midpoint of inhibition in series [8], the IC50, lay at 2.46 µM. The same molecule displayed an IC50 in series [9] of 3.38 µM. This molecule gave an IC50 in series [10] of 1950 nM. In addition, in series [1], the IC50 is 37 nM and the affinity corresponds to a Ki of 74 nM. In [2], this molecule showed an IC50 of 123 nM and a Ki of 123 nM. In series [3], the IC50 came out at 15 nM and the Ki was 30 nM. In series [4], this molecule returned an IC50 of 14 nM and a Ki of 14 nM.
Consider `Nc1ncnc2c1c(-c1cccs1)cn2[C@@H]1S[C@H](CO)[C@@H](O)[C@H]1O` [Compound 1b, (2R,3R,4S,5R)-2-(4-Amino-5-(thiophen-2-yl)-7H-pyrrolo[2,3-d]pyrimidin-7-yl)-5-(hydroxymethyl)tetrahydrothiophene-3,4-diol], for which the melting point lay within 166 to 172 °C. In addition, it took 1650 nM to reach half-maximal inhibition in series [5] (IC50). Also, in series [6], the IC50 was found to be 1740 nM. The molecule further displayed an IC50 in [7] of 2.72 µM. This molecule had an IC50 in [8] of 2.48 µM. In addition, the IC50 in [9] is 1.38 µM. In series [10], it took 2410 nM to reach half-maximal inhibition (IC50). In series [1], the IC50 is 11 nM and the inhibition constant Ki was 22 nM. The molecule further registered an IC50 in series [2] of 18 nM. In [3], this molecule gave an IC50 of 166 nM and a Ki of 332 nM. In series [4], this molecule came in with an IC50 of 117 nM and a Ki of 117 nM.
`C=Cc1cn([C@@H]2S[C@H](CO)[C@@H](O)[C@H]2O)c2ncnc(N)c12` [Compound 1c, (2R,3R,4S,5R)-2-(4-Amino-5-vinyl-7H-pyrrolo[2,3-d]pyrimidin-7-yl)-5-(hydroxymethyl)tetrahydrothiophene-3,4-diol] showed a melting point of 110 to 112 °C. Besides, the IC50 in [5] is 970 nM. For the same molecule, in series [6], the concentration for half-maximal inhibition (IC50) was 560 nM. In series [7], half-maximal inhibition (IC50) required 0.31 µM. Moreover, in series [8], half-maximal inhibition (IC50) was put at 0.2 µM. This molecule also yielded an IC50 in [9] of 0.22 µM. The IC50 in series [10] came to 470 nM. In [1], this molecule showed an IC50 of 474 nM and a Ki of 948 nM. In series [2], this molecule registered an IC50 of 77 nM and a Ki of 77 nM. Moreover, in series [3], it took 112 nM to reach half-maximal inhibition (IC50) and the affinity, expressed as Ki, was 224 nM. In [4], this molecule registered an IC50 of 86 nM and a Ki of 86 nM.
For `Nc1ncnc2c1c(-c1ccccc1)cn2[C@@H]1S[C@H](CO)[C@@H](O)[C@H]1O` [Compound 1d, (2R,3R,4S,5R)-2-(4-Amino-5-phenyl-7H-pyrrolo[2,3-d]pyrimidin-7-yl)-5-(hydroxymethyl)tetrahydrothiophene-3,4-diol], the melting point was in the range of 102 to 104 °C. In series [5], this molecule yielded an IC50 of 7570 nM. The IC50 in [6] stood at 6350 nM. Also, in series [7], half-maximal inhibition (IC50) was put at 8.83 µM. Also, the half-maximal inhibitory concentration (IC50) in [8] is 9.21 µM. In series [9], this molecule returned an IC50 of 7.81 µM. Moreover, the IC50 in [10] was determined as 6320 nM. For the same molecule, in series [1], half-maximal inhibition (IC50) required 157 nM and the Ki was found to be 314 nM. For the same molecule, in series [2], the IC50 was 27 nM and affinity was put at a Ki of 27 nM. In [3], this molecule came in with a 50% inhibitory concentration (IC50) of 357 nM and an inhibitory constant (Ki) of 714 nM. For the same molecule, in [4], inhibition was half-maximal at 288 nM (IC50) and affinity was put at a Ki of 288 nM.
As to `Nc1ncnc2c1c(-c1ccc(N3CCS(=O)(=O)CC3)cc1)cn2C1SC(CO)C(O)C1O` (stereo not drawn) [Compound 1e, 4-(4-(4-Amino-7-(3,4-dihydroxy-5-(hydroxymethyl)tetrahydrothiophen-2-yl)-7H-pyrrolo[2,3-d]pyrimidin-5-yl)phenyl)thiomorpholine 1,1-dioxide], the melting point lay in the range of 188 to 192 °C. Besides, the IC50 in series [5] was > 50000 nM. For the same molecule, the IC50 in series [6] is > 50000 nM. In addition, in [7], the IC50 was > 50 µM. The IC50 in series [8] is > 50 µM. Also, in series [9], the IC50 is > 50 µM. Further, the IC50 in series [10] is > 50000 nM. Besides, in [1], the IC50 was > 10000 nM. In addition, the IC50 in series [2] is > 10000 nM. Further, the IC50 in [3] was > 10000 nM. Also, the IC50 in series [4] is > 10000 nM.
`CCS(=O)(=O)Nc1ccc(-c2cn(C3SC(CO)C(O)C3O)c3ncnc(N)c23)cc1` (stereo not drawn) [Compound 1f, N-(4-(4-Amino-7-(3,4-dihydroxy-5-(hydroxymethyl)tetrahydrothiophen-2-yl)-7H-pyrrolo[2,3-d]pyrimidin-5-yl)phenyl)ethanesulfonamide] came in with a melting point of 127 to 132 °C. In addition, the IC50 in [5] was determined as 41600 nM. Moreover, half-maximal inhibition in [6] (IC50) required 30600 nM. The same molecule yielded an IC50 in series [7] of 30.1 µM. Also, the IC50 in series [8] was 15.4 µM. The IC50 in [9] came out at 10.3 µM. For the same molecule, the midpoint of inhibition in series [10], the IC50, lay at 27500 nM. Further, the IC50 in [1] is > 10000 nM. In series [2], the IC50 turned out to be 910 nM and the affinity corresponds to a Ki of 910 nM. Besides, the IC50 in series [3] is > 10000 nM. In addition, the IC50 in [4] was > 10000 nM.
The molecule `CC#Cc1cn([C@@H]2S[C@H](CO)[C@@H](O)[C@H]2O)c2ncnc(N)c12` [Compound 1h, (2R,3R,4S,5R)-2-(4-Amino-5-(prop-1-yn-1-yl)-7H-pyrrolo[2,3-d]pyrimidin-7-yl)-5-(hydroxymethyl)tetrahydrothiophene-3,4-diol] showed a melting point of 190 to 192 °C. Moreover, the IC50 in [5] was > 50000 nM. For the same molecule, the IC50 in [6] was > 50000 nM. The same molecule displayed a half-maximal inhibitory concentration (IC50) in series [7] of 45.5 µM. In addition, the IC50 in series [8] is > 50 µM. This molecule had an IC50 in [9] of 6.05 µM. In addition, the IC50 in series [10] is > 50000 nM. In [1], this molecule displayed an IC50 of 293 nM and an inhibition constant (Ki) of 586 nM. Besides, in series [2], half-maximal inhibition (IC50) was put at 970 nM and the affinity corresponds to a Ki of 970 nM. Also, in series [3], 1260 nM corresponded to half-maximal inhibition (IC50) and the Ki is 2510 nM. Also, in series [4], it took 1070 nM to reach half-maximal inhibition (IC50) and the Ki worked out at 1070 nM.
With `COc1cc([C@@H]2c3cc4c(cc3[C@@H](O[C@@H]3O[C@@H]5CO[C@@H](C)O[C@H]5[C@H](O)[C@H]3O)[C@H]3COC(=O)[C@H]23)OCO4)cc(OC)c1O` [Etoposide, reference compound], the IC50 came to 360 nM in [5]; 1110 nM in series [6]; 4.9 µM in series [7]; 23.4 µM in series [8]; 0.91 µM in series [9]; 410 nM in series [10].
As for `Cc1ccc(NC(=O)Nc2cc(C(F)(F)F)ccc2F)cc1Nc1ccc2c(c1)NC(=O)/C2=C\c1ccc[nH]1` [GNF 5837, reference compound], the IC50 was 177 nM in series [1], > 10000 nM in series [2], > 10000 nM in series [3] and > 10000 nM in series [4].
As for `Nc1ccn([C@@H]2O[C@H](CO)[C@@H](O)C2(F)F)c(=O)n1` [Gemcitabine, reference compound], the IC50 in [5] amounted to 300 nM; in series [6] it was 200 nM; in series [7], 1.1 µM; in [8] it was 3.6 µM; in series [9], 0.2 µM; in series [10], 100 nM.
Consider `COc1ccc2c(c1)[nH]c1c(C)nccc12` [Harmine, reference compound], for which, in series [1], the IC50 is > 10000 nM.
`COc1ncc2cc(C(=O)Nc3cc(C(=O)NCc4cccc(Cl)c4)ccc3Cl)c(=O)[nH]c2n1` [TC-S 7004, reference compound]: the IC50 was > 10000 nM in series [1], > 10000 nM in series [2], < 10 nM in series [3] and 22 nM in series [4]. The molecule further displayed a Ki in [4] of 22 nM.
As for LH 846 [reference compound], the 50% inhibitory concentration (IC50) in series [1] is > 10000 nM; in series [2], 80 nM; in [3], > 10000 nM; in series [4], > 10000 nM.
